System: Metabolism protein genes
Test: DNA chip mRNA expression in yeast, metabolism protein genes (Table 7)
Assay type: cell-based, Saccharomyces cerevisiae S288C
Description: Yeast (Saccharomyces cerevisiae S288C (α SUC2mal mel gap2 CUP1)) were incubated at 25° C. on YPD medium (yeast extract 1%, polypepton 2%, glucose 2%). One of toxic chemical substances was added to the cells at logarithmic growth phase, and the cells were further incubated for two hours. Cells were cultured without any chemical substance in the same condition, and were used as control. Concentrations of the chemical substances were defined to inhibit the growth of the yeast but not lead to death.
After completion of the incubation, the culture was centrifuged to collect the cells. To the cells, sodium acetate buffer (50 mM sodium acetate, 10 mM EDTA, 1% SDS) was added, and the mixture was shaken at 65° C. for five minutes, followed by returning to room temperature, and obtaining the supernatant, of which the procedures were repeated two times. To the supernatant, ½ amount of a solution of phenol/chloroform was added, and the mixture was centrifuged to give a supernatant, which was added with an equal amount of chloroform, and the mixture was centrifuged to give a supernatant. To the supernatant, an equal amount of isopropanol containing 0.3 M sodium acetate was added, and the mixture was allowed to stand at room temperature for 30 minutes, after which the mixture was centrifuged to give a sediment of the whole RNAs. Seventy % ethanol was added to the sediment, and the mixture was again centrifuged to give a sediment, which was then dried and dissolved in water. mRNA was isolated from the whole RNAs as followings. In view of the fact that a poly A chain is attached to the 3′ terminus of mRNA, a polynucleotide having a poly T structure which was immobilized on the surface of latex beads was used to trap the mRNA, and then the mRNA was washed and eluted with spine column (Oligotex-dT30<Super>mRNA Purification Kit, Takara). Reverse transcription of the mRNA was conducted with a reverse transcriptase (Super Script II Reverse Transcriptase; catalogue No. 18064-014, GibcoBRL) using fluorescence-labeled nucleotides to give cDNAs that were introduced with Cy3-dUTP or Cy5-dUTP during the reverse transcription.
The labeled cDNAs were dissolved in TE buffer (10mM Tris-HCl/1 mM EDTA, pH8.0), and the solution was dropped on the DNA chip containing the whole genes of yeast (DNA Chip Research Inc. Japan) so that the cDNAs were hybridized on the DNA chip at 65° C. for over 12 hours. The fluoresces intensity of the DNA chip was read with a scanner, and the ratio relative to the fluorescence intensity resulting from the absence of chemical substance was estimated as the following, which is shown in Tables 1 to 9: […]

Oc1cc(Cl)c(Cl)cc1Cl [(6), 2,4,5-trichlorophenol]
level of expressed mRNA in the presence/in the absence of chemical substance (yeast gene YMR323W): 0.4
The level of expressed mRNA in the presence of chemical substance/The level of expressed mRNA in the absence of chemical substance (yeast gene YNL012W): 1.7
level of expressed mRNA in the presence/in the absence of chemical substance (yeast gene YNL025C): 0.5
The level of expressed mRNA in the presence of chemical substance/The level of expressed mRNA in the absence of chemical substance (yeast gene YNL037C): 2.8
The level of expressed mRNA in the presence of chemical substance/The level of expressed mRNA in the absence of chemical substance (yeast gene YNL045W): 2.2
The level of expressed mRNA in the presence of chemical substance/The level of expressed mRNA in the absence of chemical substance (yeast gene YNL104C): 0.8
The level of expressed mRNA in the presence of chemical substance/The level of expressed mRNA in the absence of chemical substance (yeast gene YNL106C): 1.0
The level of expressed mRNA in the presence of chemical substance/The level of expressed mRNA in the absence of chemical substance (yeast gene YNL169C): 1.4
level of expressed mRNA in the presence/in the absence of chemical substance (yeast gene YNL192W): 0.6
The level of expressed mRNA in the presence of chemical substance/The level of expressed mRNA in the absence of chemical substance (yeast gene YNL231C): 1.8
The level of expressed mRNA in the presence of chemical substance/The level of expressed mRNA in the absence of chemical substance (yeast gene YNL322C): 1.1
The level of expressed mRNA in the presence of chemical substance/The level of expressed mRNA in the absence of chemical substance (yeast gene YNL331C): 1.8
The level of expressed mRNA in the presence of chemical substance/The level of expressed mRNA in the absence of chemical substance (yeast gene YNL332W): 1.1
The level of expressed mRNA in the presence of chemical substance/The level of expressed mRNA in the absence of chemical substance (yeast gene YNR019W): 1.3
The level of expressed mRNA in the presence of chemical substance/The level of expressed mRNA in the absence of chemical substance (yeast gene YNR033W): 1.6
The level of expressed mRNA in the presence of chemical substance/The level of expressed mRNA in the absence of chemical substance (yeast gene YNR059W): 0.8
The level of expressed mRNA in the presence of chemical substance/The level of expressed mRNA in the absence of chemical substance (yeast gene YOL058W): 0.8
level of expressed mRNA in the presence/in the absence of chemical substance (yeast gene YOL086C): 1.7
level of expressed mRNA in the presence/in the absence of chemical substance (yeast gene YOL108C): 0.9
level of expressed mRNA in the presence/in the absence of chemical substance (yeast gene YOL116W): 0.7
The level of expressed mRNA in the presence of chemical substance/The level of expressed mRNA in the absence of chemical substance (yeast gene YOL126C): 1.5
The level of expressed mRNA in the presence of chemical substance/The level of expressed mRNA in the absence of chemical substance (yeast gene YOL143C): 3.5
The level of expressed mRNA in the presence of chemical substance/The level of expressed mRNA in the absence of chemical substance (yeast gene YOL153C): 1.9
level of expressed mRNA in the presence/in the absence of chemical substance (yeast gene YOL156W): 1.2
The level of expressed mRNA in the presence of chemical substance/The level of expressed mRNA in the absence of chemical substance (yeast gene YOL165C): 1.7
level of expressed mRNA in the presence/in the absence of chemical substance (yeast gene YOR002W): 1.1
level of expressed mRNA in the presence/in the absence of chemical substance (yeast gene YOR085W): 0.6
The level of expressed mRNA in the presence of chemical substance/The level of expressed mRNA in the absence of chemical substance (yeast gene YOR099W): 0.9
level of expressed mRNA in the presence/in the absence of chemical substance (yeast gene YOR103C): 1.0
level of expressed mRNA in the presence/in the absence of chemical substance (yeast gene YOR108W): 1.6
level of expressed mRNA in the presence/in the absence of chemical substance (yeast gene YOR128C): 1.0
The level of expressed mRNA in the presence of chemical substance/The level of expressed mRNA in the absence of chemical substance (yeast gene YOR130C): 1.6
level of expressed mRNA in the presence/in the absence of chemical substance (yeast gene YOR142W): 1.6
level of expressed mRNA in the presence/in the absence of chemical substance (yeast gene YOR176W): 0.9
level of expressed mRNA in the presence/in the absence of chemical substance (yeast gene YOR178C): 2.7
level of expressed mRNA in the presence/in the absence of chemical substance (yeast gene YOR251C): 0.9
The level of expressed mRNA in the presence of chemical substance/The level of expressed mRNA in the absence of chemical substance (yeast gene YOR336W): 1.7
The level of expressed mRNA in the presence of chemical substance/The level of expressed mRNA in the absence of chemical substance (yeast gene YOR347C): 0.9
level of expressed mRNA in the presence/in the absence of chemical substance (yeast gene YOR348C): 0.7
The level of expressed mRNA in the presence of chemical substance/The level of expressed mRNA in the absence of chemical substance (yeast gene YPL017C): 1.5
level of expressed mRNA in the presence/in the absence of chemical substance (yeast gene YPL028W): 1.2
level of expressed mRNA in the presence/in the absence of chemical substance (yeast gene YPL057C): 0.6
level of expressed mRNA in the presence/in the absence of chemical substance (yeast gene YPL135W): 1.3
level of expressed mRNA in the presence/in the absence of chemical substance (yeast gene YPL148C): 0.6
level of expressed mRNA in the presence/in the absence of chemical substance (yeast gene YPR113W): 1.1
The level of expressed mRNA in the presence of chemical substance/The level of expressed mRNA in the absence of chemical substance (yeast gene YPR160W): 4.5
level of expressed mRNA in the presence/in the absence of chemical substance (yeast gene YPR165W): 1.8
The level of expressed mRNA in the presence of chemical substance/The level of expressed mRNA in the absence of chemical substance (yeast gene YPR167C): 2.6
level of expressed mRNA in the presence/in the absence of chemical substance (yeast gene YPR183W): 1.2

From patent US8192962B2, “Processes for detecting toxic substances” (Daikin Industries, Ltd., priority 2001, dated 2012)
